species: Rattus norvegicus; experiment: Everted sac permeability (ESA) of rat small intestine, after addition of thrombin inhibitor; type: functional

| SMILES | Log ESA |
| --- | --- |
| CC(=O)N1CCN(C(=O)C(Cc2cccc(C(=N)N)c2)NS(=O)(=O)NCCc2ccc3c(c2)OCCO3)CC1 (stereo unspecified) | -0.654 |
| N=C(N)c1cccc(CC(NS(=O)(=O)NCc2cccc3ccccc23)C(=O)N2CCCC(C(=O)O)C2)c1 (stereo in doubt; 10) | -0.752 |
| CC(=O)N1CCN(C(=O)C(Cc2cccc(C(=N)N)c2)NS(=O)(=O)NCc2ccc(-c3ccccc3)cc2)CC1 (stereo unspecified) | -1.174 |
| CC(=O)N1CCN(C(=O)C(Cc2cccc(C(=N)N)c2)NS(=O)(=O)NCc2ccc3ccccc3c2)CC1 (stereo unspecified) | -0.932 |
| CC(=O)N1CCN(C(=O)C(Cc2cccc(C(=N)N)c2)NS(=O)(=O)NCCc2ccc3c(c2)OCO3)CC1 (stereo unspecified) | -0.636 |
| CC(=O)N1CCN(C(=O)C(Cc2cccc(C(=N)N)c2)NS(=O)(=O)NCCc2cc3c(cc2[N+](=O)[O-])OCO3)CC1 (stereo unspecified) | -0.564 |
| CC(=O)N1CCN(C(=O)C(Cc2cccc(C(=N)N)c2)NS(=O)(=O)NCc2ccc(CO)cc2)CC1 (stereo unspecified) | -0.836 |
| CNC1CCN(C(=O)C(Cc2cccc(C(=N)N)c2)NS(=O)(=O)NCc2cccc(OC)c2OC)CC1 (stereo unspecified) | -0.686 |
| CC(CNS(=O)(=O)NC(Cc1cccc(C(=N)N)c1)C(=O)N1CCCC(C(=O)O)C1)c1ccccc1 (stereo in doubt; 9) | -0.762 |
| CC(=O)N1CCN(C(=O)C(Cc2cccc(C(=N)N)c2)NS(=O)(=O)NCCc2ccc3ccccc3c2)CC1 (stereo unspecified) | -1.032 |
| CC(=O)N1CCN(C(=O)C(Cc2cccc(C(=N)N)c2)NS(=O)(=O)NCc2cccc3ccccc23)CC1 (stereo unspecified) | -0.842 |
| COc1cc(CNS(=O)(=O)NC(Cc2cccc(C(=N)N)c2)C(=O)N2CCN(C(C)=O)CC2)ccc1[N+](=O)[O-] (stereo unspecified) | -0.559 |
| CC(CNS(=O)(=O)NC(Cc1cccc(C(=N)N)c1)C(=O)N1CCCC(C(=O)O)C1)c1ccccc1 (stereo in doubt; 11) | -0.759 |
| CC(=O)N1CCN(C(=O)C(Cc2cccc(C(=N)N)c2)NS(=O)(=O)NCC2CCCCO2)CC1 (stereo unspecified) | -0.708 |
| CC(=O)N1CCN(C(=O)C(Cc2cccc(C(=N)N)c2)NS(=O)(=O)NCc2c[nH]c3ccccc23)CC1 (stereo unspecified) | -0.914 |
| CC(=O)N1CCN(C(=O)C(Cc2cccc(C(=N)N)c2)NS(=O)(=O)NCc2cccc3cc(O)ccc23)CC1 (stereo unspecified) | -0.59 |
| CC(=O)N1CCN(C(=O)C(Cc2cccc(C(=N)N)c2)NS(=O)(=O)NCCc2cccc3ccccc23)CC1 (stereo unspecified) | -1.114 |
| COc1cccc(CNS(=O)(=O)NC(Cc2cccc(C(=N)N)c2)C(=O)N2CCC(C)CC2C(=O)O)c1OC (stereo unspecified) | -1 |
| CC(=O)N1CCN(C(=O)C(Cc2cccc(C(=N)N)c2)NS(=O)(=O)NCCc2cccc([N+](=O)[O-])c2)CC1 (stereo unspecified) | -0.688 |
| COc1ccccc1CNS(=O)(=O)NC(Cc1cccc(C(=N)N)c1)C(=O)N1CCN(C(C)=O)CC1 (stereo unspecified) | -0.815 |
| CC(=O)N1CCN(C(=O)C(Cc2cccc(C(=N)N)c2)NS(=O)(=O)NCc2ccc(Cl)cc2[N+](=O)[O-])CC1 (stereo unspecified) | -0.67 |
| CC(=O)N1CCN(C(=O)C(Cc2cccc(C(=N)N)c2)NS(=O)(=O)NCCc2nccc3ccccc23)CC1 (stereo unspecified) | -0.635 |
| CC(=O)N1CCN(C(=O)C(Cc2cccc(C(=N)N)c2)NS(=O)(=O)NCC(c2ccccc2)c2ccccc2)CC1 (stereo unspecified) | -1.092 |
| CC(=O)N1CCN(C(=O)C(Cc2cccc(C(=N)N)c2)NS(=O)(=O)NCC(C)(c2ccccc2)c2ccccc2)CC1 (stereo unspecified) | -1.456 |
| CC(=O)N1CCN(C(=O)C(Cc2cccc(C(=N)N)c2)NS(=O)(=O)NCc2cccc(Oc3ccccc3)c2)CC1 (stereo unspecified) | -1.149 |
| CC(=O)N1CCN(C(=O)C(Cc2cccc(C(=N)N)c2)NS(=O)(=O)NCCc2cccc3ncccc23)CC1 (stereo unspecified) | -0.686 |

| SMILES | Log ESA |
| --- | --- |
| COc1ccc(CNS(=O)(=O)NC(Cc2cccc(C(=N)N)c2)C(=O)N2CCN(C(C)=O)CC2)c(OC)c1 (stereo unspecified) | -0.602 |
| N=C(N)c1cccc(CC(NS(=O)(=O)NCc2cccc3ccccc23)C(=O)N2CCCC(C(=O)O)C2)c1 (stereo in doubt; 12) | -0.893 |
| CCOc1c(CNS(=O)(=O)NC(Cc2cccc(C(=N)N)c2)C(=O)N2CCN(C(C)=O)CC2)sc2ccccc12 (stereo unspecified) | -0.983 |
| CC(=O)N1CCN(C(=O)C(Cc2cccc(C(=N)N)c2)NS(=O)(=O)NCC2CNc3ccccc3C2)CC1 (stereo unspecified) | -0.674 |
| CC(=O)N1CCN(C(=O)C(Cc2cccc(C(=N)N)c2)NS(=O)(=O)NCc2ccccc2)CC1 (stereo unspecified) | -0.81 |
| CC(=O)N1CCN(C(=O)C(Cc2cccc(C(=N)N)c2)NS(=O)(=O)NCc2ccccc2-c2ccccc2)CC1 (stereo in doubt; 20) | -0.987 |
| CC(=O)N1CCN(C(=O)C(Cc2cccc(C(=N)N)c2)NS(=O)(=O)NCC(C)c2ccccc2)CC1 (stereo unspecified) | -0.889 |
| COc1cccc(CNS(=O)(=O)NC(Cc2cccc(C(=N)N)c2)C(=O)N2Cc3ccccc3C2C(=O)O)c1OC (stereo unspecified) | -0.879 |
| COc1cccc(CNS(=O)(=O)NC(Cc2cccc(C(=N)N)c2)C(=O)N2CCN(CCO)CC2)c1OC (stereo unspecified) | -0.796 |
| COc1cccc(CNS(=O)(=O)NC(Cc2cccc(C(=N)N)c2)C(=O)N2CCN(C(C)=O)CC2)c1 (stereo unspecified) | -0.804 |
| COc1ccc2c(CNS(=O)(=O)NC(Cc3cccc(C(=N)N)c3)C(=O)N3CCN(C(C)=O)CC3)cccc2c1 (stereo unspecified) | -0.86 |
| CC(=O)N1CCN(C(=O)C(Cc2cccc(C(=N)N)c2)NS(=O)(=O)NCc2ccccc2-c2ccccc2)CC1 (stereo in doubt; 5) | -1.071 |
| COc1ccc(CNS(=O)(=O)NC(Cc2cccc(C(=N)N)c2)C(=O)N2CCN(C(C)=O)CC2)cc1OC (stereo unspecified) | -0.633 |
| COc1cccc(CNS(=O)(=O)NC(Cc2cccc(C(=N)N)c2)C(=O)N2CCN(C(C)=O)CC2)c1O (stereo unspecified) | -0.833 |
| CC(=O)N1CCN(C(=O)C(Cc2cccc(C(=N)N)c2)NS(=O)(=O)NCc2cc(C)c(C)c(C)c2)CC1 (stereo unspecified) | -0.818 |
| CC(=O)N1CCN(C(=O)C(Cc2cccc(C(=N)N)c2)NS(=O)(=O)NCCCc2ccccc2C(=O)N2CCCC2)CC1 (stereo unspecified) | -1.027 |
| CC(=O)N1CCN(C(=O)C(Cc2cccc(C(=N)N)c2)NS(=O)(=O)NCc2ccc(CCc3ccccc3)cc2)CC1 (stereo unspecified) | -1.252 |
| CC(=O)N1CCN(C(=O)C(Cc2cccc(C(=N)N)c2)NS(=O)(=O)NCC2COc3ccccc3O2)CC1 (stereo unspecified) | -0.726 |
| CC(=O)N1CCN(C(=O)C(Cc2cccc(C(=N)N)c2)NS(=O)(=O)NCCOC2CCCCC2)CC1 (stereo unspecified) | -0.708 |
| CC(=O)N1CCN(C(=O)C(Cc2cccc(C(=N)N)c2)NS(=O)(=O)NCc2cc(Br)cc3ccccc23)CC1 (stereo unspecified) | -1.367 |
| CC(=O)N1CCN(C(=O)C(Cc2cccc(C(=N)N)c2)NS(=O)(=O)NCC2CCCN2Cc2ccccc2)CC1 (stereo unspecified) | -0.963 |
| CC(=O)N1CCN(C(=O)C(Cc2cccc(C(=N)N)c2)NS(=O)(=O)NCc2ccccc2O)CC1 (stereo unspecified) | -0.514 |
| CC(=O)N1CCN(C(=O)C(Cc2cccc(C(=N)N)c2)NS(=O)(=O)NCc2c(F)c(F)c(F)c(F)c2F)CC1 (stereo unspecified) | -0.65 |
| CC(=O)N1CCN(C(=O)C(Cc2cccc(C(=N)N)c2)NS(=O)(=O)NCCc2cccc(N)c2)CC1 (stereo unspecified) | -0.75 |
| CCOc1ccccc1CNS(=O)(=O)NC(Cc1cccc(C(=N)N)c1)C(=O)N1CCN(C(C)=O)CC1 (stereo unspecified) | -0.876 |

From ChEMBL document CHEMBL1133290, “Quantitative structure-intestinal permeability relationship of benzamidine analogue thrombin inhibitor” (2000)
